Assay results published in US20220305015A1, “COMBINATORIAL THERAPY TARGETING PARP1 AND RTK” (Board of Regents, The University of Texas System, priority 2019, published 2022).

Key:
PARP1 = target: T1, PARP1 (Homo sapiens, UniProt P09874); experiment: PARP trapping assay (chromatin-bound PARP1); assay type: cell-based; conditions: BR cells, 10 μM PD173074, 100 nM talazoparib, MMS
T1 construct: endogenous in cells; host or cells: SUM149-derived talazoparib-resistant (BR) cells

FGFR3 = target: T2, FGFR3 (Homo sapiens, UniProt P22607); experiment: Western blot of FGFR phosphorylation in cells treated with MMS and talazoparib; assay type: cell-based; conditions: BR# 09 and BR# 17 cells; 5 μM FGFRi
T2 construct: endogenous in cells; host or cells: SUM149 parental cells and SUM149-derived talazoparib-resistant BR cells (BR#09, BR#17)
Protocol: (FIG. 8B) BR# 17 cells were treated with 250 nM talazoparib and 0.01% MMS and FGFRi for 1 hour before being fixed and subjected to immunofluorescence staining with antibodies against FGFR3 (TexasRed, red) and yH2AX (FITC, green).

BR# 17 cells [1] = experiment: BR# 17 orthotopic xenograft mouse model; assay type: in vivo, mice; conditions: BR# 17 model; oral gavage daily; olaparib 40, AZD4547 8, talazoparib 0.25, PD173074 15 mg/kg per day
Protocol: (§1) Animal studies were performed following a protocol approved by The University of Texas MD Anderson Cancer Center Institutional Animal Care and Use Committee. Female nude mice were purchased from the Department of Experimental Radiation Oncology at MD Anderson. For BR# 09 and BR# 17 xenograft mouse models, two million cells were mixed with 50% (v/v) growth factor reduced Matrigel matrix (Corning) and inoculated into the mammary fat pads of 6- to 8-week-old female nude mice. For the 4T1 model, female Balb/c mice were purchased from Jackson Laboratory. A total of 50,000 4T1 cells were mixed with Matrigel matrix and inoculated into the mammary fat pad of 6-week-old female Balb/c mice. Inhibitors were dissolved in vehicle solvent containing 10% dimethylacetamide (Sigma-Aldrich), 5% Kolliphor HS 15 (Sigma-Aldrich), and 85% phosphate-buffered saline (Evans et al., 2017). […] Treatment with inhibitors started when tumor volumes reached a mean of 120 mm^3. Mice were treated using oral gavage daily for 20 days followed by 3 days with no drugs to prevent severe weight loss. After the first cycle, treatment was continued on a schedule of 6 days on and 1 day off. Mouse weight and tumor volume were measured three times every week. Tumor volume was estimated using the following formula: volume (mm^3) =length (mm)×width (mm)×0.5 width (mm), where length is the longest axis of the tumor. Mice were euthanized using CO2 when the tumor volume reached 2,000 mm^3. For the blood chemical test, mouse cardiac blood was collected by veterinarians in the Department of Veterinary Medicine and Surgery at MD Anderson after 16 days of treatment. Concentrations of alanine aminotransferase, aspartate aminotransferase, and blood urea nitrogen in Balb/c mice were referred to North American colonies of Charles River Balb/c mice.

BR# 17 cells [2] = experiment: yH2AX foci immunofluorescence staining after MMS; assay type: cell-based; conditions: after MMS removal
Protocol: FIGS. 2A-2C: Inhibition of FGFR3 decreases DNA damage repair. (FIG. 2A) SUM149-derived talazoparib-resistant (BR)# 17 cells were treated for 1 hour with methyl methanesulfonate (MMS), talazoparib (Tala), and PD173074 (PD) as indicated. After MMS removal, cells were cultured for the indicated time before immunofluorescence staining. Representative images of yH2AX (green) and DNA (blue) are shown. […] (FIG. 2B) For comet assay analysis, BR# 09 cells were incubated for another 3 hours after MMS removal. DNA damage was normalized to that of the talazoparib-treated group. Mean ±standard deviation is shown (n >100). (FIG. 2C) Combination index (CI) of talazoparib and PD173074 in BR cells, measured by colony formation assay. Analysis of variance was used for statistical comparisons.
Immunofluorescence staining and confocal microscopy were performed as previously described (Chen, et al., 2019). Cells were treated with DMSO (solvent control), talazoparib (125 nM for BR# 09; 250 nM for BR# 17), PD173074 (10 μM), or the combination of talazoparib and PD173074 for the time indicated. […] In both immunostaining and the proximity ligation assay, images of the cells were captured and analyzed with an LSM 710 laser confocal microscope and Zeiss Zen software (Carl Zeiss) and foci counting was performed using BlobFinder (Allalou and Wahlby, 2020).

p-Y158 PARP1 = experiment: Western blot of Y158-phosphorylated PARP1 in BR cells; assay type: cell-based
From the text: FIGS. 3A-3E: FGFR3 mediates PARP inhibitor resistance by phosphorylating PARP1 at Y158 residue. (FIG. 3A) Proximity ligation assay (PLA) signals of FGFR3 and PARP1 (red), phalloidin (green), and DNA (blue) were merged in representative images of the treatment indicated (MMS, methyl methanesulfonate; Tala, talazoparib; PD, PD173074; BR, SUM149-derived talazoparib-resistant cells). Mean ±95% confidence interval PLA signals in each cell nucleus are shown in the histograms (n >100). *p <0.05; ***p <0.001; n.s., not significant. (FIG. 3B) Cell survival of BR cells with PARP1 knockdown expressing hemagglutinin-tagged vector control (Neo), wild-type PARP1 (WT), or PARP1^Y158F (Y158F) mutant in response to talazoparib, measured by MTT assay (mean ±standard deviation; n >3). (FIG. 3C) BR# 17 cells were treated with MMS, talazoparib, and PD173074 as indicated for Western blot analysis. (FIG. 3D) Combination index (CI) of talazoparib and PD173074 in BR# 17 cells expressing PARP1^WT or PARP1^Y158F measured by MTT assay. (FIG. 3E) Cells were harvested at different time points after 40 minutes of treatment with talazoparib and MMS. […]
The precipitated protein complex was then washed and subjected to Western blot analysis performed as described previously (Chen, et al., 2019). Signals were detected using the ImageQuant 4000 system (GE Healthcare) and quantified using Image Studio Lite.

BR# 09 cells = experiment: BR# 09 orthotopic xenograft mouse model; assay type: in vivo, mice; conditions: for tumor growth: BR# 09 model, oral gavage daily, olaparib 40, AZD4547 8, talazoparib 0.25, PD173074 15 mg/kg per day; for talazoparib-induced FGFR phosphorylation in tumors: 3 days
Protocol: as §1

[3] = system: SUM149-derived talazoparib-resistant (BR) cells; experiment: Colony formation assay; assay type: cell-based; conditions: colony formation assays; BR cells vs SUM149 parental cells
Protocol: SUM149 cells (600 cells/well), BR# 09 cells (800 cells/well), and BR# 17 cells (1,000 cells/well) were seeded into a 12-well plate 18 hours before treatments. Inhibitor-containing media was refreshed every 2 days. Cells were fixed using 4% paraformaldehyde after 10-14 days of treatment. Colonies were stained with 0.5% crystal violet before plates were imaged, and colony number was quantified using the Celigo imaging cytometer (Nexcelom Bioscience). Cell survival rate was calculated by normalizing the number of colonies in each well to that of the vehicle-treated well on the same culture plate.

HCC1806-BR cells = experiment: MTT assay, survival of HCC1806-BR and HCC1806 parental cells; assay type: cell-based; conditions: 6 days of PARPi
Protocol: FIGS. 7A-7B. Activation of FGFR3 in HCC1806-BR cells. […] HCC1806-BR cells were developed by treating HCC1806 cells with […] talazoparib continuously for 9 months. Survival of HCC1806-BR and HCC1806 parental cells in response to talazoparib, olaparib, and rucaparib was measured by exposing cells to various concentrations of the indicated PARPi for 6 days before performing the MTT assay. (FIG. 7B) Antibody arrays of receptor tyrosine kinase activation in HCC1806 parental cells and HCC1806-BR cells. Cells were treated with either dimethyl sulfoxide (DMSO) or talazoparib overnight before being harvested for RTK antibody array analysis. PBS, phosphate-buffered saline.
(§2) Cells were seeded at a concentration of 1,000 cells/well in a 96-well plate and cultured overnight before treatments with inhibitors. Inhibitor-containing media was refreshed every 3 days for a 6-day treatment schedule. Cells were incubated with 0.5 mg/ml thiazolyl blue tetrazolium bromide (Sigma-Aldrich) for 2 hours, and formazan crystals were dissolved using DMSO. Optical density at 565 nm was measured and survival percentages were calculated by normalizing the optical density value of each treatment group to that of the control group, treated with DMSO only. Half-maximal inhibitory concentrations of inhibitors were calculated using the standard curve interpolate function in GraphPad Prism 8.

[4] = system: SUM149-derived talazoparib-resistant (BR) cells; experiment: MTT assay, cell survival; assay type: cell-based; conditions: for cross-resistance of BR cells to PARPi: talazoparib-resistant BR cells, MTT assay
Protocol: as §2
For Western blot signal quantification, signal intensities were analyzed using Image Studio Lite (version 5.2; LI-COR Biosciences). Signals of PARP1, PARylation, FGFR3, and phosphorylated FGFR were first normalized to house-keeping proteins (tubulin, actin, or GAPDH) of each sample before being normalized to the control groups. Every independent experiment repeat was quantified individually. Fold changes in Western blot signals were analyzed by a nonparametric Friedman test using the GraphPad Prism 8.0 software. A p value of less than 0.05 was considered statistically significant: *p <0.05; **p <0.002; ***p <0.001. Combination index experiments were designed according to the Chou-Talalay method^39, and results were calculated using Compusyn software.

[5] = target: His-tagged PARP1 recombinant protein (UniProt P09874)
Sequence of His-tagged PARP1 recombinant protein (P09874 whole entry, looked up): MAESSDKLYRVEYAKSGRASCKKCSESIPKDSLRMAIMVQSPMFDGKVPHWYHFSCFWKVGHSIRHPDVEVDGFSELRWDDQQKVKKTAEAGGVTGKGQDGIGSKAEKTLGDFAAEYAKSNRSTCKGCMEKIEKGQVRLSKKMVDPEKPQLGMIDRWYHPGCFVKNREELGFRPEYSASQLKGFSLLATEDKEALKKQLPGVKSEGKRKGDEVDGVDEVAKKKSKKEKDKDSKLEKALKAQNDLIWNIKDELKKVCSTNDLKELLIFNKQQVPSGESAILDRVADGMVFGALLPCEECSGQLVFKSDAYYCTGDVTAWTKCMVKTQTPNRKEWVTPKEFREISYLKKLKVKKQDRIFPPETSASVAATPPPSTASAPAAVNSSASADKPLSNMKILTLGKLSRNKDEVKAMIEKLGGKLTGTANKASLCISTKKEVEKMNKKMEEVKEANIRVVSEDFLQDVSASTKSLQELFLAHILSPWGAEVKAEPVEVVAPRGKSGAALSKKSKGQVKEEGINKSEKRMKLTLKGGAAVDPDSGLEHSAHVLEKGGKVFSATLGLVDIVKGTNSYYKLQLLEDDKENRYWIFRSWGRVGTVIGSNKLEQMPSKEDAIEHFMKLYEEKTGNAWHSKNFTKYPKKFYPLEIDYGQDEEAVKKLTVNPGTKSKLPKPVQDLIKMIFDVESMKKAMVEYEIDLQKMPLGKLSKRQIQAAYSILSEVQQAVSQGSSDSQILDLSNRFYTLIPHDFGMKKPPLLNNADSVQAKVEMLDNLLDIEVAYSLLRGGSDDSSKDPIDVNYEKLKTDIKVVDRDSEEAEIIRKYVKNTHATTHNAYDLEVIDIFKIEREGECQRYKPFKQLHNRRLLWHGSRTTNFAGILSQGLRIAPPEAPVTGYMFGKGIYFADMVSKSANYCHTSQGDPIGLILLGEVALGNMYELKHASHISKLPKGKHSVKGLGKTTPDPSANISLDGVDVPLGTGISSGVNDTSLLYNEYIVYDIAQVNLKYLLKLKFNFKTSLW

T1 sequence (P09874 whole entry): as the sequence (P09874 whole entry, looked up) above
T2 sequence (P22607 23-806): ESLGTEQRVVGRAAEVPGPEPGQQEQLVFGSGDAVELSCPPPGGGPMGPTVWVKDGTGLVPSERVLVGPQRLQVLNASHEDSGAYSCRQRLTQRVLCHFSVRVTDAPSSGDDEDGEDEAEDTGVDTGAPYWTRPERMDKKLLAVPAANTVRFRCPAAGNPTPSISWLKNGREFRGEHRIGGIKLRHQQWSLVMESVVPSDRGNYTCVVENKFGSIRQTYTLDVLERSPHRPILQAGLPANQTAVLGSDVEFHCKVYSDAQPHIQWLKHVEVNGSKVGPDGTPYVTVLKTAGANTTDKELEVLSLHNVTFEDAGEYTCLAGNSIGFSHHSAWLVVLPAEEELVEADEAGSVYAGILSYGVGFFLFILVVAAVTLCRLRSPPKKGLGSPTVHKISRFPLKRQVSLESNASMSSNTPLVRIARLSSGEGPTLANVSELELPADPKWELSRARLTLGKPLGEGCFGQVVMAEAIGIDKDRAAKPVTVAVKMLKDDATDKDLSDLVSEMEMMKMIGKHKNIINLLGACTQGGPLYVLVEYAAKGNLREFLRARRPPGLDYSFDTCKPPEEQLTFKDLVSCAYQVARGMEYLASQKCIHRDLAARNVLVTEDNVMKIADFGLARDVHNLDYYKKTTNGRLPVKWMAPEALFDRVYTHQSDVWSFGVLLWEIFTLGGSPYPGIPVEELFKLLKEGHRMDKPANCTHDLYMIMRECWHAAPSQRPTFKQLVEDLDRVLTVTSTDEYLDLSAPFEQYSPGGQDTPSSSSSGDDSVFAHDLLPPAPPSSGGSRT

| Compound | tumor growth (BR# 17 cells [1]) | tumor growth (BR# 09 cells) | resistance of HCC1806-BR cells compared with HCC1806 parental cells (HCC1806-BR cells) | cross-resistance of BR cells to PARPi [4] | also measured |
| --- | --- | --- | --- | --- | --- |
| CCN(CC)CCCCNc1ncc2cc(-c3cc(OC)cc(OC)c3)c(NC(=O)NC(C)(C)C)nc2n1 [PD173074] | did not inhibit tumor growth | did not inhibit tumor growth | – | – | talazoparib-induced PARP1 trapping (PARP1): prolong; FGFR phosphorylation in response to MMS and talazoparib (FGFR3): inhibited; yH2AX foci at 8 hours compared with 4 hours (BR# 17 cells [2]): significantly decreased; p-Y158 PARP1 level (p-Y158 PARP1): diminished; body weight (BR# 09 cells; BR xenograft mouse models, PD173074 15 mg/kg per day, alone or with talazoparib 0.25 mg/kg per day, long-term treatment): no loss of body weight; talazoparib-induced FGFR phosphorylation in tumors (BR# 09 cells; PD173074 10 mg/kg per day): inhibited; talazoparib-induced FGFR phosphorylation in tumors (BR# 09 cells; PD173074 20 mg/kg per day): less than the basal levels |
| Cn1ncnc1[C@H]1c2n[nH]c(=O)c3cc(F)cc(c23)N[C@@H]1c1ccc(F)cc1 [talazoparib] | did not inhibit tumor growth | did not inhibit tumor growth | more resistant | – | yH2AX foci at 8 hours compared with 4 hours (BR# 17 cells [2]): significantly decreased; half-maximal inhibitory concentration in BR cells relative to parental cells [3]: more than 100 fold; FGFR3 phosphorylation in tumors (BR# 09 cells; tumors harvested after 3 days of treatment, talazoparib alone): induced; half-maximal inhibitory concentration in BR cells relative to parental cells ([4]; MTT assays, BR cells vs SUM149 parental cells): more than 100 fold; increase in resistance to talazoparib on PARP1 knockdown ([4]; SUM149, BR# 09 and BR# 17 cells with shPARP1 vs non-targeting shRNA control): ≥ 10 fold |
| O=C(c1cc(Cc2n[nH]c(=O)c3ccccc23)ccc1F)N1CCN(C(=O)C2CC2)CC1 [olaparib] | did not inhibit tumor growth | did not inhibit tumor growth | more resistant | cross-resistance | – |
| C[C@]1(c2nc3c(C(N)=O)cccc3[nH]2)CCCN1 [veliparib] | – | – | – | cross-resistance | – |
| CNCc1ccc(-c2[nH]c3cc(F)cc4c3c2CCNC4=O)cc1 [rucaparib] | – | – | more resistant | cross-resistance | – |
| activated FGFR kinase domain | – | – | – | – | tyrosine phosphorylation in in vitro kinase assay (Western blot with anti-phospho-tyrosine antibodies; mass spectrum analysis) [5]: FGFR can phosphorylate PARP1 at tyrosine (Y)158 and Y176 amino acids |
| AZD4547 | inhibited tumor growth | not | – | – | – |
